Experimental data published in patent US20260098061A1, “EPHA2-BINDING PENDING PEPTIDE AND COMPOSITION COMPRISING SAME” (PeptiDream Inc., priority 2022, published 2026).
Numbered stars: 1 amine (or outer) side, 2 acyl side, 3 side chain; on linkers, the order of the positions; unused ones are H or OH. Bridge positions count the residues as written; N and C are the ends. Square brackets hold non-standard residues; d marks the D form. Side chains are listed from the residue outwards. Peptide text beside a SMILES is read from it. * marks the point of attachment. NH(1-deoxy-D-glucityl) = OC[C@@H](O)[C@@H](O)[C@H](O)[C@@H](O)CN*; NMePhe(4-Cl) = CN[C@@H](Cc1ccc(Cl)cc1)C(=O)O; Piperazinyl(4-CH2COOH) = O=C(O)CN1CCN(*)CC1; Trp(1-Me) = Cn1cc(C[C@H](N)C(=O)O)c2ccccc21; NMe3Pal = CN[C@@H](Cc1cccnc1)C(=O)O; NMeF = CN[C@@H](Cc1ccccc1)C(=O)O; Gly(cBu) = N[C@H](C(=O)O)C1CCC1; Aad = N[C@@H](CCCC(=O)O)C(=O)O; dAhp(2) = CCCCC[C@@H](N)C(=O)O; CO = O=C([*:1])[*:2]

Target: T1, Recombinant Human EphA2 Fc Protein (Homo sapiens, UniProt P29317)
T1 construct: purchased Elabscience
Assay: SPR interaction analysis (Biacore T200), kinetics of peptides against EphA2
Format: binding
Conditions: Recombinant Human EphA2 Fc Protein captured by Human Antibody Capture kit; single-cycle kinetics; 25° C.; HBS-P+ buffer with 1% DMSO
Procedure, shortened: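 On a Biacore T200 at 25° C, Fc-tagged human EphA2 was captured via anti-human antibody; peptides ran as five serial dilutions in HBS-P+ pH 7.4 with 1% DMSO by single-cycle kinetics. Baseline-subtracted data fitted for ka and kd, from which KD was derived.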

Kd [nM] | Structure (SMILES)
< 1 | C[C@H]1NC(=O)CSC[C@@H](C(N)=O)NC(=O)[C@H](CCCC(N)=O)NC(=O)[C@H]([C@@H](C)O)NC(=O)[C@H](Cc2cn(C)c3ccccc23)NC(=O)[C@H](CCC(=O)NC[C@H](O)[C@@H](O)[C@H](O)[C@H](O)CO)NC(=O)[C@H](Cc2cn(C)c3ccccc23)NC(=O)[C@H](Cc2cccnc2)N(C)C(=O)[C@H](CCCC(N)=O)NC(=O)[C@H](C2CCC2)NC(=O)[C@H](CC(N)=O)NC(=O)[C@H](Cc2cccnc2)N(C)C1=O [PDC_EphA2-00013705, da-Me3Py-N-Cbg-Hgn-Me3Py-W1Me-Qglucamine-W1Me-T-Hgn-C-NH2] ({CH2CO}-[dA][NMe3Pal]N[Gly(cBu)][Aad](NH2)[NMe3Pal][Trp(1-Me)]E(NH(1-deoxy-D-glucityl))[Trp(1-Me)]T[Aad](NH2)C-NH2; thioether N-12)
< 1 | C[C@H]1NC(=O)CSC[C@@H](C(N)=O)NC(=O)[C@H](CCCC(N)=O)NC(=O)[C@H]([C@@H](C)O)NC(=O)[C@H](Cc2cn(C)c3ccccc23)NC(=O)[C@H](CCC(=O)NC[C@H](O)[C@@H](O)[C@H](O)[C@H](O)CO)NC(=O)[C@H](Cc2cn(C)c3ccccc23)NC(=O)[C@H](Cc2ccccc2)N(C)C(=O)[C@H](CCCC(N)=O)NC(=O)[C@H](C2CCC2)NC(=O)[C@H](CC(N)=O)NC(=O)[C@H](Cc2ccccc2)N(C)C1=O [PDC_EphA2-00013917, da-MeF-N-Cbg-Hgn-MeF-W1Me-QGlucamine-W1Me-T-Hgn-C-NH2] ({CH2CO}-[dA][NMeF]N[Gly(cBu)][Aad](NH2)[NMeF][Trp(1-Me)]E(NH(1-deoxy-D-glucityl))[Trp(1-Me)]T[Aad](NH2)C-NH2; thioether N-12)
< 1 | CCCCC[C@H]1NC(=O)CSC[C@@H](C(N)=O)NC(=O)[C@H](CCCC(N)=O)NC(=O)[C@H]([C@@H](C)O)NC(=O)[C@H](Cc2cn(C)c3ccccc23)NC(=O)[C@H](CCCCNC(=O)N2CCN(CC(=O)O)CC2)NC(=O)[C@H](Cc2cn(C)c3ccccc23)NC(=O)[C@H](Cc2ccccc2)N(C)C(=O)[C@H](CCCC(=O)O)NC(=O)[C@H](CC(C)C)NC(=O)[C@H](CC(N)=O)NC(=O)[C@H](Cc2cccnc2)N(C)C1=O [PDC_EphA2-00018526, dahp-Me3Py-N-L-Hgl-MeF-W1Me-KCOpipzaa-W1Me-T-Hgn-C-NH2] ({CH2CO}-[dAhp(2)][NMe3Pal]NL[Aad][NMeF][Trp(1-Me)]K([CO-Piperazinyl(4-CH2COOH)])[Trp(1-Me)]T[Aad](NH2)C-NH2; thioether N-12)
< 1 | CC(C)C[C@@H]1NC(=O)[C@H](CC(N)=O)NC(=O)[C@H](Cc2cccnc2)N(C)C(=O)[C@@H](C)NC(=O)CSC[C@@H](C(N)=O)NC(=O)[C@H](CCCC(N)=O)NC(=O)[C@H]([C@@H](C)O)NC(=O)[C@H](Cc2cn(C)c3ccccc23)NC(=O)[C@H](CCCCNC(=O)N2CCN(CC(=O)O)CC2)NC(=O)[C@H](Cc2cn(C)c3ccccc23)NC(=O)[C@H](Cc2ccc(Cl)cc2)N(C)C(=O)[C@H](CCCC(=O)O)NC1=O [PDC_EphA2-00018527, da-Me3Py-N-L-Hgl-MeF4C-W1Me-KCOpipzaa-W1Me-T-Hgn-C-NH2] ({CH2CO}-[dA][NMe3Pal]NL[Aad][NMePhe(4-Cl)][Trp(1-Me)]K([CO-Piperazinyl(4-CH2COOH)])[Trp(1-Me)]T[Aad](NH2)C-NH2; thioether N-12)
< 1 | CNC(=O)C[C@@H]1NC(=O)[C@H]([C@@H](C)O)NC(=O)[C@H](Cc2cn(C)c3ccccc23)NC(=O)[C@H](CCCCNC(=O)N2CCN(CC(=O)O)CC2)NC(=O)[C@H](Cc2cn(C)c3ccccc23)NC(=O)[C@H](Cc2ccccc2)N(C)C(=O)[C@H](CCCC(=O)O)NC(=O)[C@H](CC(C)C)NC(=O)[C@H](CC(N)=O)NC(=O)[C@H](Cc2cccnc2)N(C)C(=O)[C@@H](C)NC(=O)CSC[C@@H](C(N)=O)NC1=O [PDC_EphA2-00018528, da-Me3Py-N-L-Hgl-MeF-W1Me-KCOpipzaa-W1Me-T-Nmm-C-NH2] ({CH2CO}-[dA][NMe3Pal]NL[Aad][NMeF][Trp(1-Me)]K([CO-Piperazinyl(4-CH2COOH)])[Trp(1-Me)]TD(NHMe)C-NH2; thioether N-12)
